Tests used:
[1] = test system: thermostable luciferase (Luc 146-1H2); test: Light emission of thermostable luciferase with luciferin derivatives; format: biochemical
Protocol: This stock was used to produce enzyme stock solution having of 200 μg/ml enzyme solution in 1 mg/ml BSA, 200 mM HEPES buffer, pH 8.0, 20 mM MgCl2.
Solutions were made using a 1 M DTT solution, pH adjusted to 8.0, a 20 mM Coenzyme A solution in water (both described in examples above), a 100 mM ATP solution and water to create the following solutions: Sol′ A, 100 μM ATP; Sol′B, 100 μM ATP, 4 mM Coenzyme A; Sol′n C, 100 μM ATP, 400 mM DTT, and; Sol′n D, 100 μM ATP, 4 mM Coenzyme A and 400 mM DTT.
(§1) After assembly, the reactions were initiated by addition of 25 μl of the thermostable luciferase stock solution above and mixing the tube contents. A 50 μl sample was immediately removed and placed in a luminometer tube and the light read and the tube then replaced in a tube rack at room temperature. While the light reading was being taken, a 5 μl sample of the remaining reaction (which was kept at room temperature) was diluted into 495 μl of 50 mM BisTris, pH 6.5, 1 mg/ml BSA, 1 mM EDTA prechilled to 4° C. and the tube mixed and placed on ice. The light produced by the samples in the luminometer tubes were re-read at 20, 40, 60, 90 and 120 minutes post enzyme addition. Additional 5 μl samples were taken and diluted as above at 60 and 120 minutes post enzyme addition. Once all these readings and samples were taken, 50 μl of the diluted samples was mixed with 50 μl of Steady Glo in luminometer tubes, the tubes incubated 10 minutes […] then the light produced was read on a Turner TD 20/20 luminometer.

[2] = test system: thermostable luciferase (Luc 146-1H2); test: Residual active thermostable luciferase after reaction with derivative (Steady Glo); format: biochemical
Protocol: as §1

## O=C(O)[C@H]1CSC(c2nc3ccc(OCCCl)cc3s2)=N1 [L’in-CEE]
[1]; substrate 6.25, +Co A & DTT, 0 min
  light reading of reaction sample: 77.35
[1]; substrate 6.25, +Co A & DTT, 20 min
  light reading of reaction sample: 7.958
[1]; substrate 6.25, +Co A & DTT, 40 min
  light reading of reaction sample: 3.656
[1]; substrate 6.25, +Co A & DTT, 60 min
  light reading of reaction sample: 2.312
[1]; substrate 6.25, +Co A & DTT, 90 min
  light reading of reaction sample: 1.414
[1]; substrate 6.25, +Co A & DTT, 120 min
  light reading of reaction sample: 1.134
[1]; substrate 6.25, +Co A, 0 min
  light reading of reaction sample: 1829
[1]; substrate 6.25, +Co A, 20 min
  light reading of reaction sample: 114
[1]; substrate 6.25, +Co A, 40 min
  light reading of reaction sample: 57.82
[1]; substrate 6.25, +Co A, 60 min
  light reading of reaction sample: 37.53
[1]; substrate 6.25, +Co A, 90 min
  light reading of reaction sample: 24.66
[1]; substrate 6.25, +Co A, 120 min
  light reading of reaction sample: 17.02
[1]; substrate 6.25, +DTT, 0 min
  light reading of reaction sample: 72.52
[1]; substrate 6.25, +DTT, 20 min
  light reading of reaction sample: 5.903
[1]; substrate 6.25, +DTT, 40 min
  light reading of reaction sample: 3.073
[1]; substrate 6.25, +DTT, 60 min
  light reading of reaction sample: 2.089
[1]; substrate 6.25, +DTT, 90 min
  light reading of reaction sample: 1.431
[1]; substrate 6.25, +DTT, 120 min
  light reading of reaction sample: 1.125
[1]; substrate 6.25, Alone, 0 min
  light reading of reaction sample: 121
[1]; substrate 6.25, Alone, 20 min
  light reading of reaction sample: 5.884
[1]; substrate 6.25, Alone, 40 min
  light reading of reaction sample: 3.316
[1]; substrate 6.25, Alone, 60 min
  light reading of reaction sample: 2.352
[1]; substrate 6.25, Alone, 90 min
  light reading of reaction sample: 1.569
[1]; substrate 6.25, Alone, 120 min
  light reading of reaction sample: 1.154
[1]; substrate 25, +Co A & DTT, 0 min
  light reading of reaction sample: 57.98
[1]; substrate 25, +Co A & DTT, 20 min
  light reading of reaction sample: 5.721
[1]; substrate 25, +Co A & DTT, 40 min
  light reading of reaction sample: 3.272
[1]; substrate 25, +Co A & DTT, 60 min
  light reading of reaction sample: 2.192
[1]; substrate 25, +Co A & DTT, 90 min
  light reading of reaction sample: 1.379
[1]; substrate 25, +Co A & DTT, 120 min
  light reading of reaction sample: 1.174
[1]; substrate 25, +Co A, 0 min
  light reading of reaction sample: 489.2
[1]; substrate 25, +Co A, 20 min
  light reading of reaction sample: 45.45
[1]; substrate 25, +Co A, 40 min
  light reading of reaction sample: 25.08
[1]; substrate 25, +Co A, 60 min
  light reading of reaction sample: 16.96
[1]; substrate 25, +Co A, 90 min
  light reading of reaction sample: 11.03
[1]; substrate 25, +Co A, 120 min
  light reading of reaction sample: 7.309
[1]; substrate 25, +DTT, 0 min
  light reading of reaction sample: 56.59
[1]; substrate 25, +DTT, 20 min
  light reading of reaction sample: 3.761
[1]; substrate 25, +DTT, 40 min
  light reading of reaction sample: 2.196
[1]; substrate 25, +DTT, 60 min
  light reading of reaction sample: 1.668
[1]; substrate 25, +DTT, 90 min
  light reading of reaction sample: 1.274
[1]; substrate 25, +DTT, 120 min
  light reading of reaction sample: 1.157
[1]; substrate 25, Alone, 0 min
  light reading of reaction sample: 59.87
[1]; substrate 25, Alone, 20 min
  light reading of reaction sample: 3.176
[1]; substrate 25, Alone, 40 min
  light reading of reaction sample: 1.919
[1]; substrate 25, Alone, 60 min
  light reading of reaction sample: 1.305
[1]; substrate 25, Alone, 90 min
  light reading of reaction sample: 1.178
[1]; substrate 25, Alone, 120 min
  light reading of reaction sample: 1.03
[1]; substrate 100, +Co A & DTT, 0 min
  light reading of reaction sample: 25.41
[1]; substrate 100, +Co A & DTT, 20 min
  light reading of reaction sample: 3.278
[1]; substrate 100, +Co A & DTT, 40 min
  light reading of reaction sample: 2.027
[1]; substrate 100, +Co A & DTT, 60 min
  light reading of reaction sample: 1.666
[1]; substrate 100, +Co A & DTT, 90 min
  light reading of reaction sample: 1.27
[1]; substrate 100, +Co A & DTT, 120 min
  light reading of reaction sample: 1.157
[1]; substrate 100, +Co A, 0 min
  light reading of reaction sample: 97.88
[1]; substrate 100, +Co A, 20 min
  light reading of reaction sample: 10.3
[1]; substrate 100, +Co A, 40 min
  light reading of reaction sample: 7.127
[1]; substrate 100, +Co A, 60 min
  light reading of reaction sample: 5.562
[1]; substrate 100, +Co A, 90 min
  light reading of reaction sample: 3.969
[1]; substrate 100, +Co A, 120 min
  light reading of reaction sample: 2.845
[1]; substrate 100, +DTT, 0 min
  light reading of reaction sample: 22.47
[1]; substrate 100, +DTT, 20 min
  light reading of reaction sample: 2.233
[1]; substrate 100, +DTT, 40 min
  light reading of reaction sample: 1.292
[1]; substrate 100, +DTT, 60 min
  light reading of reaction sample: 1.164
[1]; substrate 100, +DTT, 90 min
  light reading of reaction sample: 1.093
[1]; substrate 100, +DTT, 120 min
  light reading of reaction sample: 0.958
[1]; substrate 100, Alone, 0 min
  light reading of reaction sample: 20.46
[1]; substrate 100, Alone, 20 min
  light reading of reaction sample: 1.18
[1]; substrate 100, Alone, 40 min
  light reading of reaction sample: 0.868
[1]; substrate 100, Alone, 60 min
  light reading of reaction sample: 0.788
[1]; substrate 100, Alone, 90 min
  light reading of reaction sample: 0.627
[1]; substrate 100, Alone, 120 min
  light reading of reaction sample: 0.544
[2]; substrate 6.25, +Co A & DTT, sample taken 0 min
  light value of diluted reaction sample in Steady Glo: 1836
[2]; substrate 6.25, +Co A & DTT, sample taken 60 min
  light value of diluted reaction sample in Steady Glo: 1625
[2]; substrate 6.25, +Co A & DTT, sample taken 120 min
  light value of diluted reaction sample in Steady Glo: 1622
[2]; substrate 6.25, +Co A, sample taken 0 min
  light value of diluted reaction sample in Steady Glo: 1647
[2]; substrate 6.25, +Co A, sample taken 60 min
  light value of diluted reaction sample in Steady Glo: 976.8
[2]; substrate 6.25, +Co A, sample taken 120 min
  light value of diluted reaction sample in Steady Glo: 921.4
[2]; substrate 6.25, +DTT, sample taken 0 min
  light value of diluted reaction sample in Steady Glo: 1631
[2]; substrate 6.25, +DTT, sample taken 60 min
  light value of diluted reaction sample in Steady Glo: 1544
[2]; substrate 6.25, +DTT, sample taken 120 min
  light value of diluted reaction sample in Steady Glo: 1695
[2]; substrate 6.25, Alone, sample taken 0 min
  light value of diluted reaction sample in Steady Glo: 1402
[2]; substrate 6.25, Alone, sample taken 60 min
  light value of diluted reaction sample in Steady Glo: 1158
[2]; substrate 6.25, Alone, sample taken 120 min
  light value of diluted reaction sample in Steady Glo: 1073
[2]; substrate 25, +Co A & DTT, sample taken 0 min
  light value of diluted reaction sample in Steady Glo: 529.6
[2]; substrate 25, +Co A & DTT, sample taken 60 min
  light value of diluted reaction sample in Steady Glo: 1268
[2]; substrate 25, +Co A & DTT, sample taken 120 min
  light value of diluted reaction sample in Steady Glo: 1329
[2]; substrate 25, +Co A, sample taken 0 min
  light value of diluted reaction sample in Steady Glo: 1547
[2]; substrate 25, +Co A, sample taken 60 min
  light value of diluted reaction sample in Steady Glo: 777.5
[2]; substrate 25, +Co A, sample taken 120 min
  light value of diluted reaction sample in Steady Glo: 588.7
[2]; substrate 25, +DTT, sample taken 0 min
  light value of diluted reaction sample in Steady Glo: 1116
[2]; substrate 25, +DTT, sample taken 60 min
  light value of diluted reaction sample in Steady Glo: 1372
[2]; substrate 25, +DTT, sample taken 120 min
  light value of diluted reaction sample in Steady Glo: 1393
[2]; substrate 25, Alone, sample taken 0 min
  light value of diluted reaction sample in Steady Glo: 1345
[2]; substrate 25, Alone, sample taken 60 min
  light value of diluted reaction sample in Steady Glo: 973.4
[2]; substrate 25, Alone, sample taken 120 min
  light value of diluted reaction sample in Steady Glo: 860.3
[2]; substrate 100, +Co A & DTT, sample taken 0 min
  light value of diluted reaction sample in Steady Glo: 1745
[2]; substrate 100, +Co A & DTT, sample taken 60 min
  light value of diluted reaction sample in Steady Glo: 1319
[2]; substrate 100, +Co A & DTT, sample taken 120 min
  light value of diluted reaction sample in Steady Glo: 1343
[2]; substrate 100, +Co A, sample taken 0 min
  light value of diluted reaction sample in Steady Glo: 1127
[2]; substrate 100, +Co A, sample taken 60 min
  light value of diluted reaction sample in Steady Glo: 1055
[2]; substrate 100, +Co A, sample taken 120 min
  light value of diluted reaction sample in Steady Glo: 770.5
[2]; substrate 100, +DTT, sample taken 0 min
  light value of diluted reaction sample in Steady Glo: 1168
[2]; substrate 100, +DTT, sample taken 60 min
  light value of diluted reaction sample in Steady Glo: 501.5
[2]; substrate 100, +DTT, sample taken 120 min
  light value of diluted reaction sample in Steady Glo: 1478
[2]; substrate 100, Alone, sample taken 0 min
  light value of diluted reaction sample in Steady Glo: 1262
[2]; substrate 100, Alone, sample taken 60 min
  light value of diluted reaction sample in Steady Glo: 1203
[2]; substrate 100, Alone, sample taken 120 min
  light value of diluted reaction sample in Steady Glo: 1273

Source: US10745365B2, “Luminogenic and fluorogenic compounds and methods to detect molecules or conditions” (Promega Corporation, priority 2005, dated 2020)
